Results reported in EP0407651A2, “Use of 1,3-diisobutyl-8-methylxanthine as a bronchodilator and antiallergy agent” (J. URIACH & CIA. S.A., priority 1989, dated 1991).

What was measured:
[1] = tested on: Isolated guinea pig trachea; assay: Isolated guinea pig trachea relaxation (spontaneous tonus, organ bath); type: cell-based; conditions: Cavia porcellus; 50% relaxation of spontaneous tonus; relaxation by 1 mcM isoprenaline = 100%; read-out: Guinea pig trachea EC₅₀
Description: This in vitro test was carried out according to the method of Emmerson and Mackay (J. Pharm. Pharmacol. 1979, 31, 798). The trachea was excised from guinea pigs, placed in Krebs Henseleit's solution at 37°C and gassed with 95% O₂ and 5% CO₂. The trachea strip was mounted in an organ bath and attached to a tension transducer preloaded with […]. Test compounds were cumulatively added to the organ bath and concentrations causing 50% relaxation of the spontaneous tonus of the tracheal tissue (EC₅₀) were calculated (Table 1). The relaxation induced by 1 mcM isoprenaline was taken as 100%.

[2] = tested on: Histamine-induced bronchospasm in anaesthetized guinea pigs; assay: Histamine-induced bronchospasm in anaesthetized guinea pigs (Konzett and Rössler); type: in vivo; conditions: histamine 10 mcg/Kg i.v., test compound i.p., maximum inhibitory effect at 10, 30, 60 min
Description: This test was performed in anaesthetized animals according to the method of Konzett and Rössler (Arch. Exp. Pathol.Pharmacol. 1940, 195, 71). The activity was determined by calculating the dose of the active compound required to produce 50% inhibition of the bronchospasm (ID₅₀) (Table 1). Histamine was given intravenously at 10 mcg/Kg, before and 10, 30 and 60 minutes after intraperitoneal administration of test compounds. Maximum inhibitory effects were taken for calculation of ID₅₀ values.

[3] = tested on: Histamine aerosol-induced bronchospasm; assay: Histamine aerosol-induced bronchospasm in conscious guinea pigs (protection from death); type: in vivo; conditions: for Histamine bronchospasm Hist. aerosol PC₅₀ (inhal) / Histamine bronchospasm Hist. aerosol PD₅₀ (oral): conscious guinea pigs; for Histamine bronchospasm Hist. aerosol PC₅₀ (inhal): ethanolic solution nebulized 1 mL/min for 2 min, histamine challenge 3 min later, concentration protecting 50% from lethality; for Histamine bronchospasm Hist. aerosol PD₅₀ (oral): one hour before histamine aerosol (0.2%), dose protecting 50% of animals from death; for Protection from death % / Protection from death n/N: formulation B by inhalation; for Protection from death n/N: survivors versus total number of animals
Description: This test is based on the methods of Van P+roosdif-Hartzema (Inter. Ppharmacodynamic 1958, 115, 322) and Loew (J. Pharmac.Exp.Ther. 1945, 83, 120) with slight modifications. Thus, conscious guinea pigs were subjected to inhalation of histamine (0.2% aqueous solution) nebulized by an ultrasonic device (DeVilvis™, Ultra-Neb 99) during 30 seconds in a cylindric plastic chamber of 15 liters of volume, at a rate of 1 mL/min. Test compounds were given orally, one hour before the challenge of histamine, and the dose needed to protect from death 50% of the animals was determined (PD₅₀) (Table 1).
Using the same model, test compounds were also given by inhalation. They were dissolved in ethanol at different concentrations (0.45 mM to 28mM) and aerosolized by the ultrasonic nebulizer mentioned above at a rate of 1 mL/min, during 2 minutes. Three minutes later, the animals were subjected to the challenge of histamine and PC₅₀ values were determined (Table 1). Controls were subjected to inhalation of the vehicle (ethanol). PC₅₀ value is defined as the concentration of test compound in the ethanolic solution that protects 50% of animals from lethality when nebulized as indicated above.
Finally, studies have been made subjecting the animals to inhalation of one or more puffs of 5 mg/mL of 1,3-diisobutyl-8-methylxanthine (UR-6032) solution formulation B (see Example 1). Animals were forced to inhale UR-6032 for 5 minutes into the cylindric plastic chamber before the challenge with ultrasonic nebulized histamine (see above) and protection from death with respect to controls was determined (Table 2).

[4] = tested on: rat peritoneal mast cell preparations; assay: Histamine release induced by compound 48/80 in rat mast cell preparations; type: cell-based; conditions: 20 min, 1 mM test compound, compound 48/80 10⁻⁶ M, 37°C, read-out: Histamine release % inhib. at 1 mM
Description: Anaesthetized rats were bled by cardiac puncture and then 10 mL of Tyrode's-gel solution (0.1% gelatine in Tyrode's buffer, pH 7.2) containing 50 mcg heparin was injected into the peritoneal cavity. Alter a gentle massage of the abdomen, the peritoneal cell suspension was harvested. Mast cells were suspended in Tyrode's solution (10⁶ cells/mL). Aliquots of 0.2 mL of the mast cell suspension were incubated at 37°C for 20 minutes with 10 mcL of compound 48/80 (10⁻⁶ M final concentration), a potent histamine release inducer. The reaction was stopped by introducing the tubes in a ice-ethanol bath. The cells were sedi-mented by centrifugation and the histamine in the supernatant was determined by the fluorimetric method of May (J. Allergy, 1970, 46, 12). The sedimented pellets were treated with 0.1 N HCl at 100°C to liberate the non-released histamine and to determine it by the same method of May. Test compounds were added to the incubation medium dissolved in Tyrode's buffer at different concentrations (final volume: 1 mL). Control samples contained the same volume of Tyrode's buffer. The histamine release in the control samples was taken as 100%, and the percentage of the histamine release inhibition of test samples was calculated with respect to controls. (Table 3).

[5] = tested on: Passive cutaneous anaphylaxis reaction (PCA); assay: Passive cutaneous anaphylaxis reaction (PCA) in the rat; type: in vivo; conditions: 30 minutes before egg albumin and Evans' blue challenge
Description: The animals were passively sensitized by intradermal injection of 0.1 mL of five-fold diluted rat reagenic antiserum. Injections were made at 4 locations on the shaved back skin and 48 h later the test drug was administered intraperitoneally. Thirty minutes later, the animals were challenged by intravenous injection of egg albumin and Evans' blue dye. The dermal reaction was measured colorimetrically by the method of Harata (J.Pharm.Pharmac., 1971, 23, 218) as the extent of the blueing reaction at the sensitized intradermal injection site, and the percent inhibition values with respect to controls were calculated (Table 3).

[6] = tested on: Egg albumin-induced bronchospasm in sensitized guinea pigs; assay: Egg albumin-induced bronchospasm in sensitized guinea pigs (Konzett and Rössler); type: in vivo; conditions: egg albumin 0.06% w/v, 1 mL/Kg i.v., one minute after test compound
Description: The experimental procedure of Konzett and Rössler was followed (Arch. Exp. Pathol.Pharmacol. 1940, 195, 71). A single intravenous injection of 1 mL/Kg of egg albumin (0.06%, w/v) was given to sensitized animals one minute after intravenous administration of UR-6032 at different concentrations.

[7] = Acute oral toxicity in rats; type: in vivo; conditions: both sexes rats

For `CC(C)Cn1c(=O)n(C)c(=O)c2[nH]cnc21` [IBMX, 1-methyl-3-isobutylxanthine], which EC50 [1] is on record?
Its EC50 is 1100 nM.

What about the “Histamine bronchospasm Hist. i.v. ID₅₀” value [2] of the same compound?
The value was 2.50 mg/Kg,i.p.

And the “Histamine bronchospasm Hist. aerosol PC₅₀ (inhal)” value [3]?
The value was “^b 15-20 mM”.

What about the inhibition at 1000 µM [4] of the same compound?
The inhibition at 1000 µM was 37%.

And the “PCA % inhibition at 2.5 mg/Kg,i.p.” value [5]?
Its value is 86%.

Which results are given for `Cc1nc2c([nH]1)c(=O)n(CC(C)C)c(=O)n2CC(C)C` [UR-6032, 1,3-diisobutyl-8-methylxanthine]?
EC50 [1]: 100 nM; Histamine bronchospasm Hist. i.v. ID₅₀ [2]: 0.36 mg/Kg,i.p.; Histamine bronchospasm Hist. aerosol PC₅₀ (inhal) [3]: 0.5 mM; Histamine bronchospasm Hist. aerosol PD₅₀ (oral) [3]: 1 mg/kg; Protection from death % ([3]; 1 puff): 80%; Protection from death n/N ([3]; 1 puff): 4/5; Protection from death % ([3]; 2 puffs): 100%; Protection from death n/N ([3]; 2 puffs): 3/3; Protection from death % ([3]; 3 puffs): 100%; Protection from death n/N ([3]; 3 puffs): 3/3; active doses given by inhalation ([3]; inhalation): < 0.5 mg/animal; inhibition at 1000 µM [4]: 56%; Egg albumin bronchospasm ID₅₀ [6]: 0.5-1 mg/Kg,i.p.; PCA % inhibition at 2.5 mg/Kg,i.p. [5]: 39%; acute oral toxicity [7]: 50 mg/kg

For `Cn1c(=O)c2[nH]cnc2n(C)c1=O` [Theophylline, 1,3-dimethylxanthine], which EC50 [1] is on record?
The EC50 was 31000 nM.

What about the “Histamine bronchospasm Hist. i.v. ID₅₀” value [2] of the same compound?
Its value is 4.90 mg/Kg,i.p.

What about the “Histamine bronchospasm Hist. aerosol PC₅₀ (inhal)” value [3] of the same compound?
Its value is 25 mM.

What about the “Histamine bronchospasm Hist. aerosol PD₅₀ (oral)” value [3] of the same compound?
Its value is > 100 mg/kg.

And the inhibition at 1000 µM [4]?
The inhibition at 1000 µM was 25%.

What about the “PCA % inhibition at 2.5 mg/Kg,i.p.” value [5] of the same compound?
The value was 8%.
